In one test the target is T1, QKF-KAT6B (Homo sapiens, UniProt Q8WYB5).
T1 construct: purchased SignalChem K315-381BG
As to the kind of experiment: Revised Acetyltransferase Biochemical Assay, KAT6B. The conditions noted are these: 8 nM KAT6B, 1 μM AcCoA, 100 nM histone H3.1, 90 min. From the text:
KAT6B was obtained from SignalChem, catalog ID: K315-381BG

For test [1], the system named is histone H3 Lysine 14 acetylation (HBO1 mediated) in U2OS cells. As to the kind of experiment: Histone H3 Lysine 14 Acetylation Biomarker Assay (384-well, U2OS). The conditions noted are these: Homo sapiens, serum free medium, 24 hours incubation. Format: cell-based. In a few lines: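 U2OS cells in serum-free medium treated with compound 24 h; DMSO and 10 μM reference inhibitor as 0% and 100% controls. Fixed cells immunostained for H3K14ac (AlexaFluor 488) with Hoechst nuclear mask, imaged by high-content analysis; per-cell intensity converted to % inhibition, IC50 by four-parameter logistic fit.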

Test [2] has as its target T2, MOF-KAT8 (Homo sapiens, UniProt Q9H7Z6).
T2 sequence (Q9H7Z6 177-447): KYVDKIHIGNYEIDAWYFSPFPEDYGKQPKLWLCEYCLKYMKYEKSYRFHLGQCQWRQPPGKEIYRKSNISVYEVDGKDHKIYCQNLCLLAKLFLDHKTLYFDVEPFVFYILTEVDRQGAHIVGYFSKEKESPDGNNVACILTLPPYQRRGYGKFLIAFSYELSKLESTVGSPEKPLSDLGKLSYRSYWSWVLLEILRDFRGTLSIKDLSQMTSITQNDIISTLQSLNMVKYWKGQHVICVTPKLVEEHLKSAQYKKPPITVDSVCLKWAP
As to the kind of experiment: Revised Acetyltransferase Biochemical Assay, KAT8.

Test [3] has as its system histone H2A.Z Lysine 7 acetylation (TIP60 mediated) in U2OS cells. As to the kind of experiment: H2A.Z Lysine 7 Acetylation Biomarker Assay (384-well, U2OS). Format: cell-based. The conditions noted are these: Homo sapiens, serum free medium, 24 hours incubation. The method, boiled down: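 U2OS cells (3,000/well) were treated with compound for 24 h after a serum-free wash, then fixed. They were stained with anti-H2A.ZK7ac, an AlexaFluor 488 secondary and Hoechst. High-content imaging gave mean nuclear intensity per cell, converted to percent inhibition against on-plate controls, and IC50 came from a four-parameter logistic fit.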

Another test deals with T3, HBO-KAT7 (Homo sapiens, UniProt O95251).
T3 construct: encoding amino acid residues 325 to 611 (Uniprot 095251-1) of human KAT7; made in house; host or cells: E. coli BL21 DE3 RIL
T3 sequence (O95251 with tags, fused parts or gaps): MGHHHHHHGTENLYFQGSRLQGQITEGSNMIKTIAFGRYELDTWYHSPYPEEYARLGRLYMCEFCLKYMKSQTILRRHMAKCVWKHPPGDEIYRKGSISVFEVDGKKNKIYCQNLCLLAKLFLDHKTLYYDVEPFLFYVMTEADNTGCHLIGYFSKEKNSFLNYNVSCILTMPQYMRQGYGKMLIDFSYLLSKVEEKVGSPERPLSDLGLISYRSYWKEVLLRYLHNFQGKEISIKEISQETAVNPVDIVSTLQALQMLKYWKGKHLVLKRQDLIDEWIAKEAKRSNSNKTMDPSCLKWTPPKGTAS
As to the kind of experiment: Revised Acetyltransferase Biochemical Assay, KAT7. The conditions noted are these: Table 9 (HBO-KAT7), 1 μM Acetyl coenzyme A.

Test [4] deals with T2, MOF-KAT8. As to the kind of experiment: Acetyltransferase biochemical assay (AlphaScreen), KAT8. The conditions noted are these: Table 4 (MOF-KAT8); 0.4 μM Acetyl coenzyme A, histone H4, 20 nM enzyme. (In Alpha technology, singlet oxygen from a donor bead excites a nearby acceptor bead.)
In another test the target is T4, TIP60-KAT5 (Homo sapiens, UniProt Q92993).
T4 construct: encoding amino acid residues 2 to 461 (Uniprot Q92993-2) of human KAT5 isoform; made in house; host or cells: E. coli BL21 DE3
T4 sequence (Q92993 2-461 isoform Q92993-2): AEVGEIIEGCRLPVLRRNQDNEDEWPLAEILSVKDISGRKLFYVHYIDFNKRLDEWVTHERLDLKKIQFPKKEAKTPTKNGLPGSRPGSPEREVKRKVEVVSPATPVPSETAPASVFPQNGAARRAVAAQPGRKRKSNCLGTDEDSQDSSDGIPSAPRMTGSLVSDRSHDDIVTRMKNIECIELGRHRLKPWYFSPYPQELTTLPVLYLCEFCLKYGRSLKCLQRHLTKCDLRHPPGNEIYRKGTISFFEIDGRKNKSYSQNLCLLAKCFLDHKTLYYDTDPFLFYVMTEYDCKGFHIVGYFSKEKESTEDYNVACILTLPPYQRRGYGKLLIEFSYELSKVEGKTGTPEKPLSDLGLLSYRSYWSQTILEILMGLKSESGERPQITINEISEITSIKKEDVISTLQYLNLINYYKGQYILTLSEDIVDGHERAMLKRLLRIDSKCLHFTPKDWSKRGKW
As to the kind of experiment: Revised Acetyltransferase Biochemical Assay, KAT5. The conditions noted are these: 10 nM KAT5, 1 μM AcCoA, 100 nM histone H4, 90 min.

In test [5] the test system is histone H3K23 acetylation (KATE mediated) in U2OS cells. As to the kind of experiment: Histone H3 Lysine 23 Acetylation Biomarker Assay (U2OS). Format: cell-based. The conditions noted are these: Homo sapiens, 96 well, 24 hours incubation. In a few lines:
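U2OS cells were treated with compound for 24 h, then fixed and immunostained for H3K23ac with Hoechst nuclear counterstain. Per-nucleus Alexa647 intensity was quantified by high-content imaging and converted to % inhibition against DMSO and 10 μM reference-inhibitor controls. IC50 was derived from a four-parameter logistic fit.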

The target of the next test is T5, MOZ-KAT6A (Homo sapiens, UniProt Q92794, A567V).
T5 construct: encoding amino acid residues 507 to 778 (Uniprot Q92794-1) of human KAT6A; made in house; host or cells: E. coli BL21 DE3
T5 sequence (Q92794 507-778 A567V limits assumed): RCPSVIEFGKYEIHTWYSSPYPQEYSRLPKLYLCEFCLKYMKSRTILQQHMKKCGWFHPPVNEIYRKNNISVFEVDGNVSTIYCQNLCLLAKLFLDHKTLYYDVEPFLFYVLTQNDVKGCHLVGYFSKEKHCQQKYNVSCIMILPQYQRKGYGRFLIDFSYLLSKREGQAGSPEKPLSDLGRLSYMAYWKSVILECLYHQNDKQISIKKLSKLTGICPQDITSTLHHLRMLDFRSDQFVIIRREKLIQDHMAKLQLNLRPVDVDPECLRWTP
As to the kind of experiment: Revised Acetyltransferase Biochemical Assay, KAT6A. The conditions noted are these: Table 8 (MOZ-KAT6A), 1 μM Acetyl coenzyme A.

IC50 data for 12 compounds are collected here from patent US20210380548A1, “Fused [1,2,4]Thiadiazine Derivatives Which Act as KAT Inhibitors of the MYST Family” (CTxT Pty Limited, priority 2017, published 2021).

For orientation: IC50 means the concentration that inhibits the measured activity by half.

T1 sequence (Q8WYB5 whole entry): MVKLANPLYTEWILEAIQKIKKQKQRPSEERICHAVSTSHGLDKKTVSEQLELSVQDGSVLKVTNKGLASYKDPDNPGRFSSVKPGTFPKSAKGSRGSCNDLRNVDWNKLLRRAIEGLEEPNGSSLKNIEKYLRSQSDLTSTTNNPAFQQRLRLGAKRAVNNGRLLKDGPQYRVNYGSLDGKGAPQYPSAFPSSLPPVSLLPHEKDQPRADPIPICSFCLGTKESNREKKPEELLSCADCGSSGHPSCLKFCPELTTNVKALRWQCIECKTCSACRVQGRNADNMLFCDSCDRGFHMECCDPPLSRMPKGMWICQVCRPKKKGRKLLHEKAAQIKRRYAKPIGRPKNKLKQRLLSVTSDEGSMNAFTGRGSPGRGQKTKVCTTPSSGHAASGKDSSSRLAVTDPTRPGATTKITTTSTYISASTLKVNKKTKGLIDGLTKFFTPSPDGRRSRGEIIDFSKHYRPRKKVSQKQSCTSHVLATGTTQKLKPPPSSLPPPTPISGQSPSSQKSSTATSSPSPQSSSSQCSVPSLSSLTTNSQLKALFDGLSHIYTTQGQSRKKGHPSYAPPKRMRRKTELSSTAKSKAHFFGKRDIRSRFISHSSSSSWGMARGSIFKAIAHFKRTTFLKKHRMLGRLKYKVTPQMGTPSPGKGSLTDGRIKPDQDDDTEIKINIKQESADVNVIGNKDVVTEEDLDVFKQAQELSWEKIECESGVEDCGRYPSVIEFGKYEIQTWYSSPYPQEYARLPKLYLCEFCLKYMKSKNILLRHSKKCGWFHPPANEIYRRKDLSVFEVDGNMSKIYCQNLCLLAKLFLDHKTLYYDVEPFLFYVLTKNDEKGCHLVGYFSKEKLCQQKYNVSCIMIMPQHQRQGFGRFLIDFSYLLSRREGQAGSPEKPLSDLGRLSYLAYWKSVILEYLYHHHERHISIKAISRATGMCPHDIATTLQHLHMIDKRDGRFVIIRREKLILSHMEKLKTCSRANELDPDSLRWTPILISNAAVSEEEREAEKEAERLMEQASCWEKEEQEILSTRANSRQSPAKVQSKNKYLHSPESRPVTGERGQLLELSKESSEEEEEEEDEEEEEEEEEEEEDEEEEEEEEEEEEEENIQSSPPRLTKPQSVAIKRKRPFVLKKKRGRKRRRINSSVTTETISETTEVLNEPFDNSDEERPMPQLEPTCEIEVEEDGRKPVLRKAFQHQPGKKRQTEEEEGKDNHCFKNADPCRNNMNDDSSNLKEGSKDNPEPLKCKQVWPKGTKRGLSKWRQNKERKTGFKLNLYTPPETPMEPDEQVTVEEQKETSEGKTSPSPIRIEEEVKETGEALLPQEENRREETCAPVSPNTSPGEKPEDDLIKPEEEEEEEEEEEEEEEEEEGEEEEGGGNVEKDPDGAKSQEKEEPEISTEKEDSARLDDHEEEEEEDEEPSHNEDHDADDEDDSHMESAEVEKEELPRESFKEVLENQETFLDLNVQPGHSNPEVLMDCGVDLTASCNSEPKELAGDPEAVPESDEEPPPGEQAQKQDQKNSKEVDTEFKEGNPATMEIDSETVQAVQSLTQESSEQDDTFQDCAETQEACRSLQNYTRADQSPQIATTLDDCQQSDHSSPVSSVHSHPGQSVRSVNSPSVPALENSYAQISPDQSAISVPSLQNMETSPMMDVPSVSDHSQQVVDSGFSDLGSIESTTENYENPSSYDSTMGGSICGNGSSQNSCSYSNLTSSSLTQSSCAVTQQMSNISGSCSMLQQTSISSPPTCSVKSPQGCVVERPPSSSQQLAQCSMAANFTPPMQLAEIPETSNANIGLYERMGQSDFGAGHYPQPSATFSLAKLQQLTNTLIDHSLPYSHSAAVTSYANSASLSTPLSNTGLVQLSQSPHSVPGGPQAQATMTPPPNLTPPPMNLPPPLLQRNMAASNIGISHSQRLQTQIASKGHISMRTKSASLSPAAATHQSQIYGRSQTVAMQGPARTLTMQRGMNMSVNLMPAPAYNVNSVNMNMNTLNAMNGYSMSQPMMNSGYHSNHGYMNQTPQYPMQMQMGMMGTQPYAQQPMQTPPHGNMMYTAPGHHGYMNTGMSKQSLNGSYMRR

Regarding `O=C(NCC(c1cccc(Cl)c1)c1ncco1)C1=Nc2ccc(I)cc2S(=O)(=O)N1` (stereo not shown) [Example 163], the IC50 against QKF-KAT6B was found to be 117 nM; in test [1], 892 nM; against MOF-KAT8 [2] it was 14700 nM; in test [3], 1520 nM; against HBO-KAT7, 115 nM; at MOF-KAT8 [4] it was 9780 nM. Moreover, the results for the IC50 (against TIP60-KAT5; in test [5]; at MOZ-KAT6A) were 221 nM, 453 nM and 17 nM, respectively.

For `O=C(NCC(c1ccccc1)c1nccs1)C1=Nc2ccc(I)cc2S(=O)(=O)N1` (stereo not shown) [Example 167], the IC50 was 27 nM at QKF-KAT6B; 349 nM in test [1]; 8400 nM against MOF-KAT8 [2]; 516 nM in test [3]; 62 nM at HBO-KAT7; 6480 nM against MOF-KAT8 [4]. Besides, the IC50 against TIP60-KAT5 was 56 nM; in [5], 57 nM; on MOZ-KAT6A, 4 nM.

As for `O=C(NCC(c1ccccc1)c1nncs1)C1=Nc2ccc(I)cc2S(=O)(=O)N1` (stereo not shown) [Example 168], the 50% inhibitory concentration (IC50) against QKF-KAT6B was 37 nM; in test [1], 6440 nM; at MOF-KAT8 [2], 26500 nM; in test [3] it was 8850 nM; against HBO-KAT7 it was 621 nM; against MOF-KAT8 [4] it was 3390 nM. Besides, the IC50 against TIP60-KAT5 was 458 nM; in [5], 525 nM; against MOZ-KAT6A it was 8 nM.

Regarding `O=C(NCCc1ccccc1-c1n[nH]c(=O)o1)C1=Nc2ccc(I)cc2S(=O)(=O)N1` [Example 172], the IC50 on QKF-KAT6B was found to be 281 nM; in test [1], 2870 nM; on MOF-KAT8 [2], 6100 nM; in [3], 2090 nM; on HBO-KAT7, 41 nM; at MOF-KAT8 [4], 5130 nM. Also, the IC50 against TIP60-KAT5 is 25 nM; in [5] it was more than 10000 nM; on MOZ-KAT6A, 5 nM.

Regarding `O=C(NCC(c1ncco1)c1ccccc1OC(F)F)C1=Nc2ccc(I)cc2S(=O)(=O)N1` (stereo not shown) [Example 179], the half-maximal inhibitory concentration (IC50) on QKF-KAT6B amounted to 88 nM; in test [1] it was 219 nM; against MOF-KAT8 [2], 9660 nM; in test [3], 1100 nM; at HBO-KAT7, 28 nM; against MOF-KAT8 [4], 10400 nM. Besides, the IC50 turned out to be 29 nM at TIP60-KAT5, 112 nM in test [5] and 5 nM against MOZ-KAT6A.

As for `O=C(NCC(c1ccccc1)c1nnc(CC(F)(F)F)o1)C1=Nc2ccc(I)cc2S(=O)(=O)N1` (stereo not shown) [Example 181], the IC50 on QKF-KAT6B was 77 nM; in test [1], 35300 nM; on MOF-KAT8 [2] it was 31200 nM; in test [3] it was more than 40000 nM; against HBO-KAT7, 320 nM; at MOF-KAT8 [4], 104000 nM. The results for the half-maximal inhibitory concentration (IC50) (on TIP60-KAT5; in [5]; against MOZ-KAT6A) were 123 nM, more than 10000 nM and 32 nM, respectively.

With `O=C(NCC(c1ccccc1)c1ncco1)C1=Nc2ccc(Cl)cc2S(=O)(=O)N1` (stereo not shown) [Example 182], the IC50 at QKF-KAT6B worked out at 59 nM; in [1] it was 488 nM; against MOF-KAT8 [2], 24500 nM; in [3], 8100 nM; against HBO-KAT7, 237 nM; on MOF-KAT8 [4] it was 50000 nM. The IC50 came to 284 nM against TIP60-KAT5, 84 nM in test [5] and 6 nM against MOZ-KAT6A.

In the case of `CN(CC(c1ccccc1)c1ncco1)C(=O)C1=Nc2ccc(I)cc2S(=O)(=O)N1` (stereo not shown) [Example 203], the IC50 on QKF-KAT6B was 3310 nM; in test [1], 2260 nM; on MOF-KAT8 [2], 115000 nM; in [3], more than 40000 nM; on HBO-KAT7, 1670 nM; on MOF-KAT8 [4] it was 103000 nM. Further, the results for the IC50 (against TIP60-KAT5; in [5]; against MOZ-KAT6A) were 3750 nM, more than 10000 nM and 427 nM, respectively.

`O=C(NCC(c1ccccc1)c1ncco1)C1=Nc2ccc(-c3c[nH]nn3)cc2S(=O)(=O)N1` (stereo not shown) [Example 213, N-(2-(Oxazol-2-yl)-2-phenylethyl)-7-(1H-1,2,3-triazol-4-yl)-2H-benzo[e][1,2,4]thiadiazine-3-carboxamide 1,1-dioxide]: the IC50 at QKF-KAT6B is 22 nM; in test [1] it was 4940 nM; at MOF-KAT8 [2] it was 15200 nM; in [3], 29500 nM; on HBO-KAT7 it was 111 nM; at MOF-KAT8 [4], 3540 nM. The IC50 came to 193 nM at TIP60-KAT5, 116 nM in test [5] and 2 nM at MOZ-KAT6A.

As for `O=C(NCC(c1cccc(O)c1)c1ncco1)C1=Nc2ccc(I)cc2S(=O)(=O)N1` (stereo not shown) [Example 215, N-(2-(3-Hydroxyphenyl)-2-(oxazol-2-yl)ethyl)-7-iodo-2H-benzo[e][1,2,4]thiadiazine-3-carboxamide 1,1-dioxide], the IC50 against QKF-KAT6B is 65 nM; in [1], 221 nM; against MOF-KAT8 [2], 5720 nM; in test [3], 4440 nM; on HBO-KAT7, 20 nM; against MOF-KAT8 [4] it was 8740 nM. Moreover, the IC50 was determined as 25 nM against TIP60-KAT5, 953 nM in [5] and 4 nM at MOZ-KAT6A.

`COCCC(CNC(=O)C1=Nc2ccc(I)cc2S(=O)(=O)N1)c1ccccc1` (stereo not shown) [Example 220, 7-Iodo-N-(4-methoxy-2-phenylbutyl)-2H-benzo[e][1,2,4]thiadiazine-3-carboxamide 1,1-dioxide]: the IC50 against QKF-KAT6B came out at 134 nM; in test [1], 917 nM; against MOF-KAT8 [2], 26800 nM; in test [3], 7810 nM; at HBO-KAT7, 214 nM; at TIP60-KAT5, 1430 nM. Moreover, the values for the IC50 (in test [5]; against MOZ-KAT6A) were 540 nM and 20 nM, respectively.

As for `O=C(NCC(F)(F)c1ccccc1OC(F)F)C1=Nc2ccc(I)cc2S(=O)(=O)N1` [Example 231, N-(2-(2-(difluoromethoxy)phenyl)-2,2-difluoroethyl)-7-iodo-2H-benzo[e][1,2,4]thiadiazine-3-carboxamide 1,1-dioxide], the IC50 against QKF-KAT6B came out at 3240 nM; in test [1], 3880 nM; against MOF-KAT8 [2] it was 6530 nM; in test [3], 4520 nM; at HBO-KAT7, 143 nM; against TIP60-KAT5, 306 nM. Besides, the IC50 is more than 10000 nM in test [5] and 100 nM against MOZ-KAT6A.
